The values that follow are results of earlier work, collected in US20070191377A1, “Methods for treating blood disorders with nitric oxide donor compounds” (NitroMed, Inc., priority 2004, published 2007).

Each structure is given as a SMILES string.

Regarding `O=[N+]([O-])O[C@H]1CO[C@H]2[C@@H]1OC[C@H]2O[N+](=O)[O-]` [isosorbide dinitrate, 1,4,3,6-dianhydro-D-glucitol-2,5-dinitrate], the “solubility in organic solvents” value (organic solvents such as ethanol, ether and chloroform) was “freely soluble”. Where the note is “water”, the solubility in water result is listed as “sparingly soluble”.
